The results in this text go back to patent publication US20040006236A1, “Diaminopropionic acid derivatives” (priority 1999, published 2004).

Structures can show the parent of a compound that is named as a salt.

T1 sequence (P05107 23-769, other chains not shown): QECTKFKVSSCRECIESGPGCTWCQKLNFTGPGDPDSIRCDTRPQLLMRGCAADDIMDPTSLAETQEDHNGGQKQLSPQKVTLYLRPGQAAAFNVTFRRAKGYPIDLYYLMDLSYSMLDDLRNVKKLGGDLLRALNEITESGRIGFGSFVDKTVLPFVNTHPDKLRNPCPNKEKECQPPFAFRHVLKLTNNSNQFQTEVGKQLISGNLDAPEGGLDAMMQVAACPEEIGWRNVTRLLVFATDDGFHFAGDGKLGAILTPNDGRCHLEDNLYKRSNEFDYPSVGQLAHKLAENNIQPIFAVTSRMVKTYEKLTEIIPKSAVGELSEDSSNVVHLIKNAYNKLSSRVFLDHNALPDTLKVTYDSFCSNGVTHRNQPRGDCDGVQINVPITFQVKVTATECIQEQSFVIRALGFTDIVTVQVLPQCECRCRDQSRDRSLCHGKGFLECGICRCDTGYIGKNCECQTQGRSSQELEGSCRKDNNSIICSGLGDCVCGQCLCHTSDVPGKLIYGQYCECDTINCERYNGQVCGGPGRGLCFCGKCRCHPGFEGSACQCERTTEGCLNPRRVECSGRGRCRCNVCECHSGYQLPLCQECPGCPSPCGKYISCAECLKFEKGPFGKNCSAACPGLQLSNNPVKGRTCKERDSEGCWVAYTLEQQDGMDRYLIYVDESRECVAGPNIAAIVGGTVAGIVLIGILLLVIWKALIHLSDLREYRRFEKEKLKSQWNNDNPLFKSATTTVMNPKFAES

The experiment has as its target T1, ICAM-1 binding to immobilized Mac-1 (Homo sapiens, UniProt P05107+P11215).
T1 construct: made in house; host or cells: transfected 293 cells (Mac-1)
In words: Mac-1/ICAM-1 screening assay (solid-phase ELISA). Conditions: read-out: Mac-1/ICAM-1 Protein-Protein Assay IC50. The essentials:
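Competitive solid-phase ELISA: membrane Mac-1 from transfected 293 cells coated at 3 μg/mL in 20 mM Hepes pH 7.2/0.14 M NaCl/1 mM MnCl2; compounds (0.12 nM-20 μM, 1:4 series) plus 5dICAM-Ig (40 μg/mL, added) 2 h at 37° C. Bound ICAM-Ig detected with HRP anti-human IgG Fc, TMB, A450; IC50 reported.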
Consider `COc1c(C(=O)NC[C@H](NC(=O)c2ccc(C(=O)NCc3cccc(O)c3)cc2Cl)C(=O)O)csc1Cl` [Example 258, N-[2-chloro-4-[[[(3-hydroxyphenyl)methyl]amino]carbonyl]benzoyl]-3-(5-chloro-4-methoxythiophene-3-carbonyl)amino-L-alanine], for which the IC50 is 0.026 µM.

As for `NCCCC(=O)NC[C@H](NC(=O)c1ccc(C(=O)NCc2cccc(O)c2)cc1Cl)C(=O)O` [Example 261, N-[2-chloro-4-[[[(3-hydroxyphenyl)methyl]amino]-carbonyl]benzoyl]-3-(4-aminobutanoylamino)-L-alanine], the IC50 was found to be 0.011 µM.

Turning to `O=C(NCc1cccc(O)c1)c1ccc(C(=O)N[C@@H](CNC(=O)C2CCNCC2)C(=O)O)c(Cl)c1` [Example 262], the IC50 stood at 0.015 µM.

For the molecule `NC1(C(=O)NC[C@H](NC(=O)c2ccc(C(=O)NCc3cccc(O)c3)cc2Cl)C(=O)O)CCCC1` [Example 263], the IC50 turned out to be 0.027 µM.

As for `N[C@H]1CC[C@@H](C(=O)NC[C@H](NC(=O)c2ccc(C(=O)NCc3cccc(O)c3)cc2Cl)C(=O)O)CC1` [Example 264], the IC50 amounted to 0.025 µM.

Regarding `Nc1cccn(CC(=O)NC[C@H](NC(=O)c2ccc(C(=O)NCc3cccc(O)c3)cc2Cl)C(=O)O)c1=O` [Example 266], the IC50 amounted to 0.306 µM.

As for `O=C(O)c1cccc(C(=O)NC[C@H](NC(=O)c2ccc(C(=O)NCc3cccc(O)c3)cc2Cl)C(=O)O)c1` [Example 297], the IC50 is 0.081 µM.

Turning to `O=C(O)CCCC(=O)NC[C@H](NC(=O)c1ccc(C(=O)NCc2cccc(O)c2)cc1Cl)C(=O)O` [Example 298], the IC50 came to 0.298 µM.

With `O=C(NCc1cccc(O)c1)c1ccc(C(=O)N[C@@H](CNC(=O)c2ccccc2)C(=O)O)c(Cl)c1` [Example 302, 3-benzoylamino-N-[2-chloro-4-[[[(3-hydroxyphenyl)methyl]amino]carbonyl]benzoyl]-L-alanine], the IC50 stood at 0.031 µM.

As to `O=C(NCc1cccc(O)c1)c1ccc(C(=O)N[C@@H](CNC(=O)c2cccs2)C(=O)O)c(Cl)c1` [Example 303, N-[2-chloro-4-[[[(3-hydroxyphenyl)methyl]amino]carbonyl]benzoyl]-3-(thiophene-2-carbonyl)amino-L-alanine], the IC50 is 0.0064 µM.

`O=C(NCc1cccc(O)c1)c1ccc(C(=O)N[C@@H](CNC(=O)c2cccs2)C(=O)O)c(Cl)c1` [Example 305, N-[2-chloro-4-[[[(3-hydroxyphenyl)methyl]amino]carbonyl]benzoyl]-3-(thiophene-2-carbonyl)amino-L-alanine, sodium salt]: the IC50 was 0.019 µM.

Turning to `O=C(NCc1cccc2[nH]ccc12)c1ccc(C(=O)N[C@@H](CNC(=O)c2ccccc2)C(=O)O)c(Cl)c1` [Example 314, 3-(benzoylamino)-N-[2-chloro-4-[[(1H-indol-4-ylmethyl)amino]carbonyl]benzoyl]-L-alanine], the IC50 came out at 0.04 µM.

Turning to `O=C(NCc1cccc2[nH]ccc12)c1ccc(C(=O)N[C@@H](CNC(=O)c2ccoc2)C(=O)O)c(Cl)c1` [Example 316], the IC50 was found to be 0.024 µM.

For `Cc1ccc(C(=O)NC[C@H](NC(=O)c2ccc(C(=O)NCc3cccc4[nH]ccc34)cc2Cl)C(=O)O)s1` [Example 317], the IC50 stood at 0.036 µM.

In the case of `O=C(NCc1cccc2c1CCN2)c1ccc(C(=O)N[C@@H](CNC(=O)c2cccs2)C(=O)O)c(Cl)c1` [Example 318, 3-(thiophene-2-carbonyl)amino-N-[2-chloro-4-[[(2,3-dihydro-1H-indol-4-ylmethyl)amino]carbonyl]benzoyl]-L-alanine], the IC50 is 0.098 µM.

`O=C(CCc1cccc(O)c1)c1ccc(C(=O)N[C@@H](CNC(=O)c2cccs2)C(=O)O)c(Cl)c1` [Example 319, N-[2-chloro-4-[1-oxo-3-(3-hydroxyphenyl)propyl]benzoyl]-3-(thiophene-2-carbonyl)amino-L-alanine]: the IC50 is 0.043 µM.

As to `O=C(NC[C@H](NC(=O)c1ccc(-n2nnnc2NCc2cccc(O)c2)cc1Cl)C(=O)O)c1cccs1` [Example 321], the IC50 stood at 0.076 µM.

Consider `O=C(NCc1cccc2[nH]cnc12)c1ccc(C(=O)N[C@@H](CNC(=O)c2cccs2)C(=O)O)c(Cl)c1` [Example 322], for which the IC50 is 0.051 µM.

On to `O=C(NCc1cccc2[nH]ccc12)c1ccc(C(=O)N[C@@H](CNC(=O)c2cccs2)C(=O)O)c(Br)c1` [Example 329], for which the IC50 was 0.025 µM.

As for `C[C@@H](NC(=O)c1ccc(C(=O)N[C@@H](CNC(=O)c2cccs2)C(=O)O)c(Br)c1)c1cccc2ccccc12` [Example 332], the IC50 is 0.068 µM.

On to `Nc1cccc(CNC(=O)c2ccc(C(=O)N[C@@H](CNC(=O)c3cccs3)C(=O)O)c(Br)c2)c1` [Example 334, N-[4-[[[(3-aminophenyl)methyl]amino]carbonyl]-2-bromobenzoyl]-3-(thiophene-2-carbonyl)amino-L-alanine], for which the IC50 is 0.071 µM.

In the case of `Cc1cc(C(=O)NCc2cccc(O)c2)cc(Cl)c1C(=O)N[C@@H](CNC(=O)c1cccs1)C(=O)O` [Example 338, N-[2-chloro-4-[[[(3-hydroxyphenyl)methyl]amino]carbonyl]-6-methylbenzoyl]-3-[(thiophene-2-carbonyl)amino]-L-alanine], the IC50 was determined as 0.021 µM.
